Results taken from patent publication US20240317727A1 (Duke University, priority 2018, published 2024).

What was measured:
[1] = test system: C4/2 prostate cancer cells; assay: Mouse xenograft model of Prostate Cancer; type: in vivo; settings: nude mice, 25 mg/kg every other day intraperitoneal, vs vehicle
Protocol: FIGS. 7A and 7B are graphs showing that the compounds of the disclosure inhibit tumor growth in a mouse xenograft model of Prostate Cancer. Nude mice were inoculated on their flank with one million C4/2 prostate cancer cells (n=20 mice). One week after inoculation, tumors were apparent and mice were then treated with either vehicle (n=10 mice) or Compound 0017 (n=10 mice) at 25 mg/kg every other day by intraperitoneal administration. On the indicated days after the start of vehicle or Compound 0017 administration, tumors were measured in situ with a caliper and tumor volume calculated in cubic millimeters (FIG. 7A). Simultaneously, mouse weight was determined (FIG. 7B). Error bars represent standard error of the mean. **=P<0.01 in accordance with one embodiment of the present disclosure.

[2] = test system: heat shock induced chaperone (Hsp25 and Hsp70) expression; assay: Heat shock induced chaperone expression in MEFs, immunoblotting; type: cell-based, mouse; settings: heat shock 42° C. 30 mins, 6-hour recovery, FIG. 3
Protocol: The MEFs were then subjected to heat shock stress at 42° C. for 30 mins to activate HSF1. After heat shock, the MEFs were incubated at 37° C. for a 6-hour recovery. The whole cell lysates were collected at the end of the experiment, and proteins of interest, including Hsp25, Hsp70, HSF1 and GAPDH (as loading control) were assessed by immunoblotting with the corresponding antibody.

[3] = 7-week Maximal Tolerated Dose (MTD) study in mice; type: in vivo; settings: 25 mpk three times per week, intra-peritoneal, 7 weeks
[4] = test system: NCI-H460; type: cell-based; settings: NCI-H460, Non-Small Cell Lung Cancer, two days
[5] = test system: 786-0; assay: NCI60 cell growth and viability: 786-0; type: cell-based; settings: 786-0, Renal Cancer, two days
[6] = Homo sapiens, 48 h, read-out: log10 [GI50 (M)] (converted)
[7] = Homo sapiens, 48 h, read-out: log10 [LC50 (M)] (converted)

O=C(Nc1ccc(F)cc1)Nc1ccc(Cl)c([N+](=O)[O-])c1 [Compound 0017, 1-(4-chloro-3-nitrophenyl)-3-(4-fluorophenyl)urea]
mouse weight ([1]; FIG. 7B): without impacting the weight | tumor growth (tumor volume) ([1]; C4-2 derived tumors, 21-day, FIG. 7A): inhibits the growth | heat shock induced chaperone (Hsp25 and Hsp70) expression [2]: dose-dependently inhibited | tolerability [3]: well tolerated | GI50 [4, 6]: 2.69e-06 M | CC50 [4, 7]: 4.57e-05 M | log10 [TGI (M)] [4]: −4.94 log10 M | log10 [TGI (M)] [5]: −4.88 log10 M | GI50 [5, 6]: 3.39e-06 M | CC50 [5, 7]: 3.8e-05 M
